Test results: patent publication US20230073214A1, “BIOACTIVE RELEASING MEMBRANE FOR ANALYTE SENSOR” (DexCom, Inc., priority 2021, published 2023)

Columns and labels:
[1] = in vitro bioactive release profile of dexamethasone acetate from bioactive releasing membrane 70 (percent cumulative release by HPLC); assay type: physicochemical; conditions: over a time span of 16-35 days
Method: With reference to FIG. 5A, an exemplary in vitro bioactive release profiles for dexamethasone acetate is shown using exemplary bioactive releasing membrane 70. The percent cumulative release of dexamethasone acetate can be determined using HPLC, for example using a Phenomenex Kinetex 5μ EVO C18 100 Å, 50×3.0 mm column held at 25° C. with a 254 nm UV detector and an elution gradient of A: Water with 0.1% formic acid/B: Acetonitrile with 0.1% formic acid (vol/vol), where the gradient from time 0 to 2 minutes is 90% A/10% B; from 2-5 minutes is 10% A/90% B; and from 5 minutes is 90% A/10% B. Dexamethasone acetate and dexamethasone HPLC standards are prepared at concentrations of about 0.1-20 ug/mL.
With reference to FIG. 5B, experimental data of a release rate of a bioactive agent (dexamethasone acetate) from a bioactive releasing membrane 70 initially or during the first time period being greater than the release rate of the bioactive agent from the bioactive releasing membrane initially or during the second time period and the release rate of the bioactive agent from the bioactive releasing membrane initially or during the second time period is greater than the release rate of the bioactive agent from the bioactive releasing membrane initially or during the third time period is shown. […]

[2] = additional release experiments with dexamethasone salts in different bioactive releasing membrane combinations; assay type: physicochemical; conditions: in a water-soluble cellulosic based polymer
Method: Additional experiments were carried out using dexamethasone salts in different bioactive releasing membrane combinations.

Row | third release rate: release of the remaining amount [1] | release profile [2] | Compound
1 | approximately 10% |  | CC(=O)OCC(=O)[C@@]1(O)[C@H](C)C[C@H]2[C@@H]3CCC4=CC(=O)C=C[C@]4(C)[C@@]3(F)[C@@H](O)C[C@@]21C [dexamethasone acetate]
2 |  | bolus release profile | C[C@@H]1C[C@H]2[C@@H]3CCC4=CC(=O)C=C[C@]4(C)[C@@]3(F)[C@@H](O)C[C@]2(C)[C@@]1(O)C(=O)COP(=O)(O)O [dexamethasone sodium phosphate]
